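Each compound was tested at five concentrations against cells in 96-well plates for 48 hours. Definition used: TGI = concentration required for complete inhibition of growth.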
Experiments:
Assay in all cases: NCI-60 cell line screen, 48 h
MALME-3M melanoma = system: MALME-3M melanoma
MOLT-4 leukemia = system: MOLT-4 leukemia
NCI-H522 lung = system: NCI-H522 lung
K-562 leukemia = system: K-562 leukemia
A549 NSCLC = system: A549 NSCLC
CCRF-CEM leukemia = system: CCRF-CEM leukemia
HCC-2998 colon = system: HCC-2998 colon
MDA-MB-231 breast = system: MDA-MB-231 breast
OVCAR-3 ovarian = system: OVCAR-3 ovarian
OVCAR-4 ovarian = system: OVCAR-4 ovarian
SK-MEL-28 melanoma = system: SK-MEL-28 melanoma
ACHN renal = system: ACHN renal
NCI-H460 lung = system: NCI-H460 lung
DU-145 prostate = system: DU-145 prostate
NCI-H226 lung = system: NCI-H226 lung
UACC-257 melanoma = system: UACC-257 melanoma
U251 CNS = system: U251 CNS
786-0 renal = system: 786-0 renal
OVCAR-5 ovarian = system: OVCAR-5 ovarian
MDA-N = system: MDA-N
CAKI-1 renal = system: CAKI-1 renal
SNB-19 CNS = system: SNB-19 CNS
HOP-62 NSCLC = system: HOP-62 NSCLC
UACC-62 melanoma = system: UACC-62 melanoma
A498 renal = system: A498 renal
IGROV1 ovarian = system: IGROV1 ovarian
RXF 393 renal = system: RXF 393 renal
SF-295 CNS = system: SF-295 CNS
LOX IMVI melanoma = system: LOX IMVI melanoma
BT-549 breast = system: BT-549 breast
HOP-92 NSCLC = system: HOP-92 NSCLC
T-47D breast = system: T-47D breast
SF-539 CNS = system: SF-539 CNS
M14 melanoma = system: M14 melanoma
HCT-15 colon = system: HCT-15 colon
SF-268 CNS = system: SF-268 CNS
SK-MEL-5 melanoma = system: SK-MEL-5 melanoma
HL-60(TB) leukemia = system: HL-60(TB) leukemia
PC-3 prostate = system: PC-3 prostate
SNB-75 CNS = system: SNB-75 CNS
EKVX NSCLC = system: EKVX NSCLC
SK-OV-3 ovarian = system: SK-OV-3 ovarian
NCI-H23 lung = system: NCI-H23 lung
RPMI-8226 leukemia = system: RPMI-8226 leukemia
SN12C renal = system: SN12C renal
NCI/ADR-RES ovarian = system: NCI/ADR-RES ovarian
MDA-MB-435 = system: MDA-MB-435
TK-10 renal = system: TK-10 renal
HT29 colon = system: HT29 colon
HCT-116 colon = system: HCT-116 colon
SK-MEL-2 melanoma = system: SK-MEL-2 melanoma
UO-31 renal = system: UO-31 renal
SR leukemia = system: SR leukemia
COLO 205 colon = system: COLO 205 colon
MCF7 breast = system: MCF7 breast
KM12 colon = system: KM12 colon
SW-620 colon = system: SW-620 colon
HS 578T breast = system: HS 578T breast
OVCAR-8 ovarian = system: OVCAR-8 ovarian

Measured: TGI

CCOP(=O)(OCC)C(Nc1cccc([N+](=O)[O-])c1)c1ccccc1 (centres undefined)
25.5 µM: IGROV1 ovarian
62.1 µM: T-47D breast
not listed: SW-620 colon | HS 578T breast | OVCAR-8 ovarian
> 100 µM: all other assays above

COC(=O)[C@@H](O)[C@]1(C(=O)OC)C2O[C@@H](OC)[C@@H]1CCCCCC[C@H]2O
not listed: DU-145 prostate | A498 renal | HOP-92 NSCLC | T-47D breast | HL-60(TB) leukemia | MCF7 breast
> 100 µM: all other assays above
